Experimental findings from BindingDB's records for patent US20230348450 (Genzyme, 2023) are described below.

Structures are written as SMILES. “And” between values parts separate entries of the source, which are not always exact repeats. Identical values can stand only once.

The target in the assay is T1, Bisphosphoglycerate mutase (Homo sapiens, UniProt P07738).
T1 sequence (P07738 whole entry): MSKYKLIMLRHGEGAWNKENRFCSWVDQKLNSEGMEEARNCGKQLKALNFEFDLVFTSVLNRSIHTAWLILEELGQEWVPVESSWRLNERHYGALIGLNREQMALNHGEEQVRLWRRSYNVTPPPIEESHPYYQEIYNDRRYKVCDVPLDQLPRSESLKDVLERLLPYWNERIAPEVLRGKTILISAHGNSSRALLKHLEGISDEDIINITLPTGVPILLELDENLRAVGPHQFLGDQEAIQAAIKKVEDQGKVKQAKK
Nature of the assay: BPGM Synthase Assay. On the procedure:
To the assay plate was added Enzyme Solution (20 uL) to columns 2-22 and 24 of the assay plate. To columns 1 and 23 was added GAPDH Solution (20 uL). A separate compound plate was prepared at the desired concentrations and all wells were normalized with 5% DMSO. The compound plate was incubated for 30 minutes at RT. Next, the substrate solution (20 μL) was dispensed to all reaction wells and the plate was incubated for 60 minutes at RT. Koningic acid (1 μL) was added and the plate was incubated for 10 minutes at RT. […] Next, Resazurin Solution (10 μL) was added to all reaction wells and the plate was incubated for 30 minutes at RT.
By IC50 is commonly meant the concentration needed to halve the response being measured. Regarding `Cc1nc(COc2ccc(F)cn2)sc1-c1cccc(-c2ccc(C(=O)O)c(O)c2)c1` [US20230348450, Example 1], the 50% inhibitory concentration (IC50) was 1500 nM and 1000 nM. In turn, `Cc1nc(COc2ncccn2)sc1-c1cccc(-c2ccc(S(=O)(=O)CC(=O)O)cc2)n1` [US20230348450, Example 2] yielded an IC50 of 146 nM. As for `Cc1nc(COc2ncccn2)sc1-c1cccc(-c2cc(C(=O)O)cs2)n1` [US20230348450, Example 3], the IC50 was 260 nM and 180 nM. For `Cc1nc(COc2ccccn2)sc1-c1cccc(-c2ccc(C(=O)O)c(O)c2)c1` [US20230348450, Example 4], the IC50 is 590 nM and 710 nM. Then `Cc1nc(COc2ncccn2)sc1-c1cccc(-c2ccc(C(=O)O)c(O)c2)n1` [US20230348450, Example 6], with 70 nM. Molecule `Cc1nc(COCC(=O)N(C)C)sc1-c1csc(-c2cc(O)c(C(=O)O)cc2F)n1` [US20230348450, Example 7] showed an IC50 of 60 nM. `COC(=O)NCc1nc(C)c(-c2nsc(-c3cc(O)c(C(=O)O)cc3F)n2)s1` [US20230348450, Example 8] gave an IC50 of 95 nM. Against the preceding molecule, the IC50 is about 1.6-fold higher. `COC(=O)NCc1nc(C)c(-c2cccc(-c3ccc(C(=O)O)c(O)c3)n2)s1` [US20230348450, Example 9] came in with a concentration for half-maximal inhibition (IC50) of 317 nM. Next, `CC(=O)NCc1nc(C)c(-c2csc(-c3cc(O)c(C(=O)O)cc3F)n2)s1` [US20230348450, Example 10]: 95 nM; `COC(=O)NCc1nc(C)c(-c2csc(-c3cc(O)c(C(=O)O)cc3F)n2)s1` [US20230348450, Example 209]: 63 nM and 59 nM.
